The source of these data is patent publication US20240057603A1, “ISOCYCLOSERAM FORMULATION” (SYNGENTA CROP PROTECTION AG, priority 2020, published 2024).

The nature of the data set: physchem. The settings on record: 20 °C.

What is called solubility is the concentration that dissolves in the medium under given conditions. Low values mean a poorly soluble substance, high ones a readily soluble substance. As for `CCN1OCC(NC(=O)c2ccc(C3=NOC(c4cc(Cl)c(F)c(Cl)c4)(C(F)(F)F)C3)cc2C)C1=O` (stereo not shown) [Isocycloseram], the solubility is less than 5 µg/mL.
